These results are taken from US8318811B2, “Method for treating an inflammatory bowel disease using 2-amino-2-[4-(3-benzyloxyphenylthio)-2-chlorophenyl]ethyl-1,3-propanediol or a salt thereof” (Kyorin Pharmaceutical Co., Ltd., priority 2006, dated 2012).

Experiment [1] deals with Dextran Sodium Sulfate-Induced Colitis in Mice. Briefly: Dextran sodium sulfate-induced colitis in mice. The format is in vivo, BALB/C male mice. The following applies: for Length of large intestine / myeloperoxidase activity in large intestine: DSS colitis, average ± standard error. How it is done: Colitis was induced in BALB/C male mice by allowing animals To drink a5% aqueous solution of dextran sodium sulfate (DSS) (average molecular weight=5000) for 7 days [Kitajima, S. et. al., Exp Anim, Vol. 49, No. 1: 9-15 (2000)]. KRP-203 dissolved in distilled water (at 0.01, 0.03 and 0.1 mg/kg) was orally administered once a day for 8 days, starting the day before the administration of DSS solution. One group was administered distilled water as a placebo.
8 days after the start of the DSS period, mice were anesthetized With diethylether and sacrificed by cervical dislocation. The large intestine (the segment from colon to anus) was removed from each animal. Because it is known that the ingestion of DSS solution causes colitis in mice that causes a decrease in the length of large intestine [Okayasu, I. et. al., Gastroenterology, Vol. 98: 694-702 (1990)], the length of the large intestine from the colon to anus was measured with a caliper. The large intestine was then cut open longitudinally to expose the lumen and the content was washed off with physiological saline. The specimens were assayed and compared for the activity of myeloperoxidase, a marker of inflammation in colitis [Grisham, M B. et. al., Methods Enzymol, Vol. 186: 729-742 (1990)]. […]
Tacrolimus was suspended in a 0.5% aqueous solution of carboxymethylcellulose sodium (CMC-Na) (at 3 mg/kg) and was administered once a day for 8 days, starting the day before the start of the DSS period. One group was administered 0.5% aqueous CMC-Na solution as a placebo. The increase in the myeloperoxidase activity in large intestine was suppressed by 37% in the 3 mg/kg group as compared to the placebo group.

The subject of the next experiment is IL-10 knockout mice. Briefly: Effect on colitis in IL-10 knockout mice (histological score of large intestine). The format is in vivo, B6.129P2-IL10<tm1Cgn>/J (IL-10 knockout) mice. The following applies: 0.1 mg/kg orally once a day for 4 weeks; sum of proximal, middle and distal large intestine scores; average ± standard error. How it is done: B6.129P2-IL10^<tm1Cgn>/J (IL-10 knockout) mice (male, 5-6 week old) were obtained for the test. KRP-203 dissolved in distilled water was orally administered at a dose of 0.1 mg/kg once a day for 4 weeks, starting 8 weeks after the animals were obtained. One group was administered distilled water alone as a placebo. Following the administration period, the animals were dissected to remove large intestine, which was then fixed in formalin. Subsequently, tissue slices were prepared from the formalin-fixed large intestine and were stained with hematoxylin and eosin. The proximal, middle, and distal segments of the large intestine were then histologically scored according to the standard procedure (Berg D J, et al., Gastroenterology, 123: 1527-1542 (2002)). The scores for the three segments were added together to determine the histological scores for individual animals. The results are given in average ±standard error.

[2] abbreviates: 0.01 mg/kg orally once a day for 8 days.
[3] abbreviates: 0.03 mg/kg orally once a day for 8 days.
[4] abbreviates: 0.1 mg/kg orally once a day for 8 days.

Where a name gives a salt, the structure may show the parent alone.

`NC(CO)(CO)CCc1ccc(Sc2cccc(OCc3ccccc3)c2)cc1Cl` [KRP-203, 2-amino-2-[4-(3-benzyloxyphenylthio)-2-chlorophenyl]ethyl-1,3-propanediol hydrochloride]: the “suppression of the increase in the myeloperoxidase activity in large intestine as compared to the placebo group” value in experiment [1] (0.01 mg/kg group) came out at 51%; in experiment [1] (0.03 mg/kg group) it was 69%; in experiment [1] (0.1 mg/kg group) it was 62%. Moreover, the “Length of large intestine” value in experiment [1] (setting [2]) worked out at 67.4 ± 1.4 mm; in experiment [1] (setting [3]) it was 72.7 ± 1.5 mm; in experiment [1] (setting [4]), 71.4 ± 1.4 mm. Besides, the entries for the “myeloperoxidase activity in large intestine” value in experiment [1] (setting [2]), in experiment [1] (setting [3]) and in experiment [1] (setting [4]) were 55.8 ± 16.2 U/g protein, 36.8 ± 5.9 U/g protein and 44.4 ± 6.4 U/g protein, respectively. In addition, the “Histological Score” value with IL-10 knockout mice was 0.3 ± 0.2.
Turning to `C=CC[C@@H]1/C=C(\C)C[C@H](C)C[C@H](OC)[C@H]2O[C@@](O)(C(=O)C(=O)N3CCCC[C@H]3C(=O)O[C@H](/C(C)=C/[C@@H]3CC[C@@H](O)[C@H](OC)C3)[C@H](C)[C@@H](O)CC1=O)[C@H](C)C[C@@H]2OC` [Tacrolimus, tacrolimus, reference compound], the “suppression of the increase in the myeloperoxidase activity in large intestine as compared to the placebo group” value in experiment [1] (3 mg/kg group, suspended in 0.5% CMC-Na, once a day for 8 days) worked out at 37%.
